Experimental data: the OPERA property sets (Mansouri et al. 2018)
Values after ≈ are worked out from the molar mass of the structure shown.

Conditions: not given
With `COc1ccc2oc(N(N)CCC#N)nc2c1` the logP was 0.98. `Nc1cccc2cccc(N)c12` showed a logP of 1.78. `CCCC(=O)n1ncc2c(O)ncnc21` showed a logP of 0.85. For `[N-]=[N+]=CC(=O)OC[C@H](N)C(=O)O`, the logP was -2. Work on `Cc1ccc(OCCN(C)C)cc1` yielded a logP of 2.17. With `Clc1cccc2ccccc12` the logP was 4. For `Clc1cc(Cl)c(-c2ccc(Cl)c(Cl)c2Cl)cc1Cl`, the logP was 7.44. With `CCOP(=S)(OCC)Oc1cc(C)nc(C(C)C)n1` the solubility was 0.131 mM (≈ 40 µg/mL). `C=C(Br)CC1(C(C)CC)C(=O)NC(=O)NC1=O` (stereo not drawn) showed a logP of 2.2. Work on `O=c1ccc2cc3ccoc3cc2o1` yielded a logP of 1.67. In the case of `CN1CCN(CCn2cncc2[N+](=O)[O-])CC1`, the logP is reported as -0.2. In the case of `O=C(O)CCCC(=O)c1ccc(-c2ccccc2)cc1`, the logP is reported as 3.35. In the case of `C=CC(=O)NCCc1cnc[nH]1`, the logP is reported as -0.21. `Oc1ccc(C2CNCCc3c2cc(O)c(O)c3Cl)cc1` (stereo not drawn) showed a logP of 2.39. Molecule `COP(N)(=S)Oc1ccccc1C(=O)OC(C)C` (stereo not drawn) has a logP of 2.7. With `ClC(Cl)(Cl)c1nc(NCc2ccccc2)nc(C(Cl)(Cl)Cl)n1` the logP was 4.93. `CSc1ccc2oc(N(N)CCC#N)nc2c1` showed a logP of 1.5. In the case of `COc1ccc(N=c2snc3sc(S(N)(=O)=O)nn23)cc1`, the logP is reported as 2.93. Work on `O=C(OCn1ncc2c(=O)[nH]cnc21)c1ccccc1` yielded a logP of 1.5. `O=C(c1ccccc1)n1ncc2c(=O)[nH]cnc21` gave a logP of 1.2. `NS(=O)(=O)c1nc2ccc(OCCO)cc2s1` gave a logP of 0.59. `Nc1nc2c(ncn2COCCO)c(=O)[nH]1` showed a logP of -1.56. For `COc1ccc2sc(C(=O)Nc3nnn[nH]3)c(OC(C)C)c2c1`, the logP was 1.78. `Nc1cnn(-c2ccccc2)c(=O)c1Cl` gave a logP of 1.14. Work on `O=C1c2cc([N+](=O)[O-])ccc2-c2ccc([N+](=O)[O-])cc21` yielded a logP of 2.84. With `COC(=O)c1c[nH]c2ccccc12` the logP was 2.57. `ClCC1CO1` (stereo not drawn) gave a logP of 0.45. Work on `NCCCN1c2ccccc2Sc2ccc(Cl)cc21` yielded a logP of 4.47. `CC(=NNC(N)=Nc1ccccc1)c1ccccc1` gave a logP of 2.18. In the case of `Clc1ccc2c(Cl)c(Cl)c(Cl)c(Cl)c2c1`, the logP is reported as 7. `CN(C(=O)C(Cl)Cl)c1ccc(OC(=O)c2ccco2)cc1` showed a logP of 2.24. In the case of `Cc1cc(C)nc(NC(=O)NS(=O)(=O)c2ccccc2C(=O)OC2COC2)n1`, the logP is reported as 1.1. Work on `NS(=O)(=O)c1nn2c(=Nc3ccc(O)cc3)snc2s1` yielded a logP of 1.89.

Same assay, conditions: 20 °C
For `C=Cc1ccccn1`, the solubility was 262 mM (≈ 27500 µg/mL). `C=CCOC(C)=O` showed a solubility of 280 mM (≈ 28000 µg/mL). `COP(=S)(OC)Oc1nc(Cl)c(Cl)cc1Cl` showed a solubility of 0.0148 mM (≈ 4.76 µg/mL). Work on `ClCCOCCCl` yielded a solubility of 120 mM (≈ 17200 µg/mL). Work on `CN(C)c1ccc(C(=O)c2ccc(N(C)C)cc2)cc1` yielded a solubility of 1.49 mM (≈ 400 µg/mL).

Same assay, conditions: 23 °C
In the case of `CCOc1cc(OP(=S)(OC)OC)nc(CC)n1`, the solubility is reported as 0.137 mM (≈ 40 µg/mL).

Same assay, conditions: 23.0 °C
`CC/C=C\CCO` gave a log10 OH rate constant (cm³/molecule/s) of -9.96.

Same assay, conditions: 24.0 °C
For `C[Si](C)(C)C`, the log10 OH rate constant (cm³/molecule/s) was -12.

Same assay, conditions: 25 °C
`CC(C)(C#N)/N=N/C(C)(C)C#N` showed a solubility of 2.13 mM (≈ 350 µg/mL). In the case of `Cc1ccc(C)cc1`, the solubility is reported as 1.53 mM (≈ 162 µg/mL). In the case of `O=C1CCO1`, the solubility is reported as 5130 mM (≈ 370000 µg/mL). For `CCOC`, the solubility was 832 mM (≈ 50000 µg/mL). Work on `CCCCOC(=O)COc1ccc(Cl)cc1Cl` yielded a solubility of 0.166 mM (≈ 46 µg/mL). With `Clc1cccc2cccc(Cl)c12` the solubility was 0.0016 mM (≈ 0.315 µg/mL). `O=[N+]([O-])c1ccc(Nc2ccc(O)cc2)c([N+](=O)[O-])c1` showed a solubility of 0.0036 mM (≈ 0.99 µg/mL). Molecule `Cc1ccc2c(c1N)C(=O)c1ccccc1C2=O` has a solubility of 0.0014 mM (≈ 0.332 µg/mL). For `CCCCCCCCOP(=O)(Oc1ccccc1)Oc1ccccc1`, the solubility was 0.000386 mM (≈ 0.14 µg/mL). Molecule `NNc1ccccc1` has a solubility of 1170 mM (≈ 127000 µg/mL). Molecule `c1ccc2c(c1)cc1ccc3cccc4ccc2c1c34` has a solubility of 6.42e-06 mM (≈ 0.00162 µg/mL). In the case of `CCCCCCCCCCCCCCCC`, the solubility is reported as 3.97e-06 mM (≈ 0.0009 µg/mL). `COC(=O)COc1ccc(Cl)cc1Cl` gave a solubility of 1.1 mM (≈ 258 µg/mL). With `Nc1cc(Cl)cc(C(=O)O)c1Cl` the solubility was 3.4 mM (≈ 700 µg/mL). `OCC#CCO` gave a solubility of 4340 mM (≈ 374000 µg/mL). Work on `Clc1cc(Cl)c(-c2ccccc2Cl)cc1Cl` yielded a solubility of 5.62e-05 mM (≈ 0.0164 µg/mL). In the case of `CCCCCCCCCCCCCCC`, the solubility is reported as 3.58e-07 mM (≈ 7.6e-05 µg/mL). `CC=CC#N` showed a solubility of 373 mM (≈ 25000 µg/mL). `CCF` gave a solubility of 44.9 mM (≈ 2160 µg/mL). For `CNC1(c2ccccc2Cl)CCCCC1=O.Cl` (stereo not drawn), the solubility was 729 mM.

Same assay, conditions: 25.0 °C
Molecule `CCOCCOCC` has a log10 OH rate constant (cm³/molecule/s) of -10.2. Molecule `CC1OCCO1` has a log10 OH rate constant (cm³/molecule/s) of -11. Work on `FC(F)OC(F)C(F)(F)F` (stereo not drawn) yielded a log10 OH rate constant (cm³/molecule/s) of -14.4. `CC(=O)C(C)C` gave a log10 OH rate constant (cm³/molecule/s) of -11.5. `C=Cc1ccccn1` gave a log10 OH rate constant (cm³/molecule/s) of -10.2. With `C=CCOC(C)=O` the log10 OH rate constant (cm³/molecule/s) was -10.6. In the case of `FC(F)(F)C(F)(F)C(F)(F)C(F)(F)N(C(F)(F)C(F)(F)C(F)(F)C(F)(F)F)C(F)(F)C(F)(F)C(F)(F)C(F)(F)F`, the log10 OH rate constant (cm³/molecule/s) is reported as < -16.2. In the case of `CCC(CC)(CC)CC`, the log10 OH rate constant (cm³/molecule/s) is reported as -11.3. `FC(Cl)C(F)(F)Cl` (stereo not drawn) showed a log10 OH rate constant (cm³/molecule/s) of -13.9. Work on `FC(F)C(F)(F)OCC(F)(F)F` yielded a log10 OH rate constant (cm³/molecule/s) of -13. `COC(F)(F)C(F)(F)C(F)(F)F` showed a log10 OH rate constant (cm³/molecule/s) of -13.9. With `FC(F)(F)CBr` the log10 OH rate constant (cm³/molecule/s) was -13.7. With `CCNc1nc(Cl)nc(NC(C)(C)C)n1` the log10 OH rate constant (cm³/molecule/s) was -11. `CC(=O)CC1C(CC=O)C1(C)C` (stereo not drawn) gave a log10 OH rate constant (cm³/molecule/s) of -10.3.

Same assay, conditions: 30 °C
For `Nc1ccc([N+](=O)[O-])cc1`, the solubility was 5.27 mM (≈ 728 µg/mL). In the case of `Brc1ccccc1`, the solubility is reported as 2.84 mM (≈ 446 µg/mL).

Same assay, conditions: pH 7.4
With `N[C@@H](Cc1ccc(N(CCCl)CCCl)cc1)C(=O)O` the logD was -0.52.
